Earlier results on one compound are cited in paper PMC10125900 (The Journal of General Physiology, 2023).

One data set has as its system GluN3A ABD. To be noted: ref Furukawa and Gouaux, 2003; Yao and Mayer, 2006.
A further data set deals with GluN1/2A–D receptors. As to conditions: read-out: glycine potency at GluN1, EC50; ref Hansen et al., 2021.
For another data set, the system named is GluN1^FA+TL/3A. As to conditions: read-out: glycine potency at GluN3A, EC50; ref Kvist et al., 2013a.

For the compound `NCC(=O)O` [glycine], the “higher affinity for isolated GluN3A ABD compared to isolated GluN1 ABD” value in the data set on GluN3A ABD is listed as 650 fold. For the same compound, the EC50 is 0.1 to 1 µM on GluN1/2A–D receptors and 60 µM in the data set on GluN1^FA+TL/3A.

One may read the EC50 as the concentration giving half of the maximal effect.
